{"source": "patent US20070292407A1", "about": "“Methods of treatment for meconium aspiration syndrome” (The Board of Trustees Operating Michigan State University, priority 2005, published 2007)", "origin": "cited, not measured here", "conditions": "in vitro; Burke et al., J Pediatr Surg 2002"}
{"smiles": "CC(=O)N[C@@H](CS)C(=O)O", "note": "[N-Acetylcysteine, N-acetyl-L-cysteine]", "values": [{"measurement": "reduction of meconium viscosity", "result": "significant reduction of meconium viscosity"}]}
